Assay results published in US20240400577A1, “MODULATORS OF PROTEIN KINASES” (VIBLIOME THERAPEUTICS, LLC, priority 2021, published 2024).

What was measured:
Test in all cases: Kinase panel enzymatic inhibition assay (Nanosyn)
Assay type in all cases: biochemical
Conditions in all cases: compound 5 μM; ATP at Km; 30-minute pre-incubation
MNK2 = biological target: T1, MNK2 (Homo sapiens, UniProt Q9HBH9)
T1 construct: Nanosyn (contract laboratory that ran the panel)
Summary of the method: (§1)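 Enzymatic inhibition measured within a panel of at least 300 kinases, using a validated format such as Caliper LabChip mobility shift, ADP detection or time-resolved fluorescence. Compounds tested at 5 μM with ATP at each kinase's Km, after a 30-minute pre-incubation. Values given as percent inhibition or IC50.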

KDR = biological target: T2, KDR (Homo sapiens, UniProt P35968)
T2 construct: purchased Nanosyn (contract screening)
Summary of the method: as §1

LYNa = biological target: T3, LYNa (Homo sapiens, UniProt P07948)
T3 construct: purchased Nanosyn (contract screening)
Summary of the method: as §1

p38b = biological target: T4, p38b (Homo sapiens, UniProt Q15759)
T4 construct: Nanosyn (contract laboratory that ran the panel)
Summary of the method: as §1

RET = biological target: T5, RET (Homo sapiens, UniProt P07949)
T5 construct: Nanosyn (contract laboratory that ran the panel)
Summary of the method: as §1

LYNb = biological target: T6, LYNb (Homo sapiens, UniProt P07948)
T6 construct: purchased Nanosyn (contract screening)
Summary of the method: as §1

ZAK = biological target: T7, ZAK (Homo sapiens, UniProt Q9NYL2)
T7 construct: Nanosyn (contract laboratory that ran the panel)
Summary of the method: as §1

FGR = biological target: T8, FGR (Homo sapiens, UniProt P09769)
T8 construct: purchased Nanosyn (contract screening)
Summary of the method: as §1

COT1 = biological target: T9, COT1 (Homo sapiens, UniProt P41279)
T9 construct: purchased Nanosyn (contract screening)
Summary of the method: as §1

PIKfyve = biological target: T10, PIKfyve (Homo sapiens, UniProt Q9Y2I7)
T10 construct: Nanosyn (contract laboratory that ran the panel)
Summary of the method: as §1

SGK3 = biological target: T11, SGK3 (Homo sapiens, UniProt Q96BR1)
T11 construct: Nanosyn (contract laboratory that ran the panel)
T11 sequence (Q96BR1 1-496): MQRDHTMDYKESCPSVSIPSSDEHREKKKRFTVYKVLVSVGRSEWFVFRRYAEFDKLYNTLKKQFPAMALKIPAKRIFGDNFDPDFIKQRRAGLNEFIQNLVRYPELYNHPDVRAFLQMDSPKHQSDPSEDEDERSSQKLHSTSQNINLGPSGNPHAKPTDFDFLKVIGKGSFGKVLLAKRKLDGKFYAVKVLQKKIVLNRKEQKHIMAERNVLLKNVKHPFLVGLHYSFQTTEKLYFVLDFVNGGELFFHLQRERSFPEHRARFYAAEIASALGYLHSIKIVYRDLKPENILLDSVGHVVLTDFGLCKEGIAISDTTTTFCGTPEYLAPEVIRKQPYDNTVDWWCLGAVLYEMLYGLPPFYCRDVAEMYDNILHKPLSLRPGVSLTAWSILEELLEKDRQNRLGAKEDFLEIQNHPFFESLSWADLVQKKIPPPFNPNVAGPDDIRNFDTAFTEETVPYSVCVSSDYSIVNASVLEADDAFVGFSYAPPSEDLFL
Summary of the method: as §1

CRAF = biological target: T12, CRAF (Homo sapiens, UniProt P04049)
T12 construct: purchased Nanosyn (contract screening)
Summary of the method: as §1

ARAF = biological target: T13, ARAF (Homo sapiens, UniProt P10398)
T13 construct: purchased Nanosyn (contract screening)
T13 sequence (P10398 1-606): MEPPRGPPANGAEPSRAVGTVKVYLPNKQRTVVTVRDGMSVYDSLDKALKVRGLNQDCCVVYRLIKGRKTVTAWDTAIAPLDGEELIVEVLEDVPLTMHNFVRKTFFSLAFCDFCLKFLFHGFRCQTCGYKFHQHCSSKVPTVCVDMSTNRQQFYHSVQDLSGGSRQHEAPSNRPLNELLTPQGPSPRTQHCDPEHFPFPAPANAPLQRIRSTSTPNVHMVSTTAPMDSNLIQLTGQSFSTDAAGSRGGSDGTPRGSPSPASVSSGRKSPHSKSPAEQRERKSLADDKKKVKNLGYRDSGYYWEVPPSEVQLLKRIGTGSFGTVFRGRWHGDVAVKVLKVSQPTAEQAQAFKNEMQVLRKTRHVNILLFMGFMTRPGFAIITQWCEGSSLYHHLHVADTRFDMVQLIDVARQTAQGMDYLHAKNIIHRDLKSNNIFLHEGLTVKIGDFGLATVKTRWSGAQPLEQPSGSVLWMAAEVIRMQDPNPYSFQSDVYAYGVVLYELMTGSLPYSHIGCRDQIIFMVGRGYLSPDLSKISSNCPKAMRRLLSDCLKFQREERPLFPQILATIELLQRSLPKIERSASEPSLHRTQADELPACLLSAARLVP
Summary of the method: as §1

Abl2 = biological target: T14, Abl2 (Homo sapiens, UniProt P42684)
T14 construct: purchased Nanosyn (contract screening)
Summary of the method: as §1

BLK = biological target: T15, BLK (Homo sapiens, UniProt P51451)
T15 construct: purchased Nanosyn (contract screening)
Summary of the method: as §1

FYN = biological target: T16, FYN (Homo sapiens, UniProt P06241)
T16 construct: purchased Nanosyn (contract screening)
Summary of the method: as §1

EPH = system: EPH
Summary of the method: as §1

SGK2 = biological target: T17, SGK2 (Homo sapiens, UniProt Q9HBY8)
T17 construct: Nanosyn (contract laboratory that ran the panel)
T17 sequence (Q9HBY8 1-367): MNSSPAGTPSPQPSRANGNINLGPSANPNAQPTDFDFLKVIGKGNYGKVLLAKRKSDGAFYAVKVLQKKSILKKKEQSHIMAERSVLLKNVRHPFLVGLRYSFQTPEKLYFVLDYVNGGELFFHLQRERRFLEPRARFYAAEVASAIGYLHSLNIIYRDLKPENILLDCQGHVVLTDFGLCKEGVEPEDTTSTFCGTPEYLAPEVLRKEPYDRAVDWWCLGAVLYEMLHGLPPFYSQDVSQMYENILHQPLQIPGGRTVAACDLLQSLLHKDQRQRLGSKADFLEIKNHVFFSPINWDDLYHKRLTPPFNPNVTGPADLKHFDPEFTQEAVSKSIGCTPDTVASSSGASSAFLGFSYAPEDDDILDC
Summary of the method: as §1

T14 sequence (P42684 whole entry): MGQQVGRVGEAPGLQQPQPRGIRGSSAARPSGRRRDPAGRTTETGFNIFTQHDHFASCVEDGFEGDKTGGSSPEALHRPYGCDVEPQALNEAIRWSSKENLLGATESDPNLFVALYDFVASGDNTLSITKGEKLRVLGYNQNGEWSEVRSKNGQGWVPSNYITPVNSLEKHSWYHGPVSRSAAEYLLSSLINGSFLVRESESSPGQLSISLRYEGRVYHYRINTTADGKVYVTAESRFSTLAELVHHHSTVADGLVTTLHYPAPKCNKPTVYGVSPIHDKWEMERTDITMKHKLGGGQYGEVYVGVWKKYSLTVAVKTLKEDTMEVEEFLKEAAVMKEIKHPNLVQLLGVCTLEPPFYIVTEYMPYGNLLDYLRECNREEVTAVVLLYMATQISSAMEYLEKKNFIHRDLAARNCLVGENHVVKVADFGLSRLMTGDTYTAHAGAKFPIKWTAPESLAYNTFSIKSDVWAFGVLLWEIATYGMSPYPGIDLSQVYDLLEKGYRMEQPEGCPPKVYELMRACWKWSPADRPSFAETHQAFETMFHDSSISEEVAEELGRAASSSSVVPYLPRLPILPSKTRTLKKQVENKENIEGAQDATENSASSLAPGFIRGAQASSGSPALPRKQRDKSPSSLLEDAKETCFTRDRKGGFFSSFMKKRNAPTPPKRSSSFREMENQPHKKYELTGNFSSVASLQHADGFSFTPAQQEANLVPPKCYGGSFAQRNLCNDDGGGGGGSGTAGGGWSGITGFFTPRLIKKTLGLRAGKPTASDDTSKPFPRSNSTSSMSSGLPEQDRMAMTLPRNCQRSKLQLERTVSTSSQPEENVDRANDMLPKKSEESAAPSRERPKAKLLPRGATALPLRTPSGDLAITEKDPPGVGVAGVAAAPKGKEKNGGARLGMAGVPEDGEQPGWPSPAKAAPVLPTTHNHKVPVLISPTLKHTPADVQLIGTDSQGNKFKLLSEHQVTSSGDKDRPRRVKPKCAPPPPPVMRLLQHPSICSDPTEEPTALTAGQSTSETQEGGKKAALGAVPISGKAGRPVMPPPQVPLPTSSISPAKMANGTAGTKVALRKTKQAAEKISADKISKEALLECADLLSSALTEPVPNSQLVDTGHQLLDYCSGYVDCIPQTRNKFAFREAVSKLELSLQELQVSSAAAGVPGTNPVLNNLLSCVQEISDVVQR
T8 sequence (P09769 whole entry): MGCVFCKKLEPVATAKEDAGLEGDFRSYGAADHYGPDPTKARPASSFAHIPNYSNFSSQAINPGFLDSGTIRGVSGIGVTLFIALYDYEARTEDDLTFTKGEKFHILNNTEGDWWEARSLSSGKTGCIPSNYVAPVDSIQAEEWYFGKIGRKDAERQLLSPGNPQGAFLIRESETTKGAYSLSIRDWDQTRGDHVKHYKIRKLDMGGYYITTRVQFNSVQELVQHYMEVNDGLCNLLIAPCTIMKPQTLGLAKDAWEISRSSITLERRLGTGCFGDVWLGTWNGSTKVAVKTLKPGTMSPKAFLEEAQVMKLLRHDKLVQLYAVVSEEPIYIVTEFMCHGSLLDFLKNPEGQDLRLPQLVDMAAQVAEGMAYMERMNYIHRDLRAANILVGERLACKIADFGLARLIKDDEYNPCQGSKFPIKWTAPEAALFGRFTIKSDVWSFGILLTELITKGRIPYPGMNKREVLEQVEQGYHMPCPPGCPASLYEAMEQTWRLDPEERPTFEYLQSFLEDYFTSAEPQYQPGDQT
T3 sequence (P07948 whole entry): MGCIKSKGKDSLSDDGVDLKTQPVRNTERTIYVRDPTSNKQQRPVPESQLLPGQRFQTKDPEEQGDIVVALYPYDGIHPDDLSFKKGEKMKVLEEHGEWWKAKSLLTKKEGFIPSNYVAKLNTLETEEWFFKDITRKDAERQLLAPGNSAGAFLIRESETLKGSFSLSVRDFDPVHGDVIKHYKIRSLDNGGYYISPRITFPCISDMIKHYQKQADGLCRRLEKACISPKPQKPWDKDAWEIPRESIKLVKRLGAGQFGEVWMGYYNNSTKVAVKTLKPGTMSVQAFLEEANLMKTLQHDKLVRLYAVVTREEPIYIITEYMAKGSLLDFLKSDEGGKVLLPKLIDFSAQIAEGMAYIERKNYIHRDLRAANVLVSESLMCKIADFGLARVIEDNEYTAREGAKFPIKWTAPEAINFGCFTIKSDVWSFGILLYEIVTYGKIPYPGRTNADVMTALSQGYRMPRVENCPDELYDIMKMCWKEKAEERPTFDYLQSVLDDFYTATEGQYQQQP
T6 sequence (P07948 1-491 isoform P07948-2): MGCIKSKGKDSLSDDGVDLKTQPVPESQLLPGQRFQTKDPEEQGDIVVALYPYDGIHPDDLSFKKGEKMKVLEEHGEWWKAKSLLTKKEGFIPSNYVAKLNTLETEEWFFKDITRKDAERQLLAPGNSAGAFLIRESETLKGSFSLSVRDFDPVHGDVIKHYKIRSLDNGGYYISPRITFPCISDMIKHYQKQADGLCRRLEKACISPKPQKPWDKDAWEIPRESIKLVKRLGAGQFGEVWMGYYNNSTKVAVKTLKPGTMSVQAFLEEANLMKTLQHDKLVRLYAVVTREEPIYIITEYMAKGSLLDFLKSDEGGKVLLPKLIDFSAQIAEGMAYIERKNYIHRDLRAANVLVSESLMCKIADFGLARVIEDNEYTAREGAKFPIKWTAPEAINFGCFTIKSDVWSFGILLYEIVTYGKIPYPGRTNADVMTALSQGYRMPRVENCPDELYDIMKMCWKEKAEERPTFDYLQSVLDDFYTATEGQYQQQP
T16 sequence (P06241 whole entry): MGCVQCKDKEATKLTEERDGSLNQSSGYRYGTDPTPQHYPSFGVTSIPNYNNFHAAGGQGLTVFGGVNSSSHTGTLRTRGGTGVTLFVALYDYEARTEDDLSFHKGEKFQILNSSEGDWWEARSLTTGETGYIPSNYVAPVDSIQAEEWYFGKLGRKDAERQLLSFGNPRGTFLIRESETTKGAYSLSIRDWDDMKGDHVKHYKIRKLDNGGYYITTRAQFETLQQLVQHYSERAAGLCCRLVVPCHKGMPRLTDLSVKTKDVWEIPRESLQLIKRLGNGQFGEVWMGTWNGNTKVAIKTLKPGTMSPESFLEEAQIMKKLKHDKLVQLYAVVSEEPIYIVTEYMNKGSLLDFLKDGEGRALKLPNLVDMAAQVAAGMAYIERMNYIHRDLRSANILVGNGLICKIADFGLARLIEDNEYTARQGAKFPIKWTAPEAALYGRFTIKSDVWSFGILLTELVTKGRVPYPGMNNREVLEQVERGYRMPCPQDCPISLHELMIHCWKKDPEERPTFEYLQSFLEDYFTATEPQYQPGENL
T12 sequence (P04049 whole entry): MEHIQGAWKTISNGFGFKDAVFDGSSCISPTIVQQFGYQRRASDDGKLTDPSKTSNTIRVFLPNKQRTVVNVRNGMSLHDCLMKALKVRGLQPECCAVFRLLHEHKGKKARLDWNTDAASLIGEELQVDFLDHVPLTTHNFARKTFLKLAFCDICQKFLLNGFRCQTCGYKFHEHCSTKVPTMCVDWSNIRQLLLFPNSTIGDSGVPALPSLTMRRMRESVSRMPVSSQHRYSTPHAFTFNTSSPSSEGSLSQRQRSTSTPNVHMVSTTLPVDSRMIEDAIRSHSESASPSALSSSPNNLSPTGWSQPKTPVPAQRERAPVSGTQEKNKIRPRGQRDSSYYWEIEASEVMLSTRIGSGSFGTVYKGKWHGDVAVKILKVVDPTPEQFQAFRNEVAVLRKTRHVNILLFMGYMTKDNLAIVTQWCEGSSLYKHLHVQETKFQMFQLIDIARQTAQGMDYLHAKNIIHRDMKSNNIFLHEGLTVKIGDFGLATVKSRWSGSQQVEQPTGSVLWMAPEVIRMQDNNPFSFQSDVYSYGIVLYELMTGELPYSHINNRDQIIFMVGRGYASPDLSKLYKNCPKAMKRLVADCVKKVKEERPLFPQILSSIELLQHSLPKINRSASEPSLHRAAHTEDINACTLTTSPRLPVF
T5 sequence (P07949 29-1114): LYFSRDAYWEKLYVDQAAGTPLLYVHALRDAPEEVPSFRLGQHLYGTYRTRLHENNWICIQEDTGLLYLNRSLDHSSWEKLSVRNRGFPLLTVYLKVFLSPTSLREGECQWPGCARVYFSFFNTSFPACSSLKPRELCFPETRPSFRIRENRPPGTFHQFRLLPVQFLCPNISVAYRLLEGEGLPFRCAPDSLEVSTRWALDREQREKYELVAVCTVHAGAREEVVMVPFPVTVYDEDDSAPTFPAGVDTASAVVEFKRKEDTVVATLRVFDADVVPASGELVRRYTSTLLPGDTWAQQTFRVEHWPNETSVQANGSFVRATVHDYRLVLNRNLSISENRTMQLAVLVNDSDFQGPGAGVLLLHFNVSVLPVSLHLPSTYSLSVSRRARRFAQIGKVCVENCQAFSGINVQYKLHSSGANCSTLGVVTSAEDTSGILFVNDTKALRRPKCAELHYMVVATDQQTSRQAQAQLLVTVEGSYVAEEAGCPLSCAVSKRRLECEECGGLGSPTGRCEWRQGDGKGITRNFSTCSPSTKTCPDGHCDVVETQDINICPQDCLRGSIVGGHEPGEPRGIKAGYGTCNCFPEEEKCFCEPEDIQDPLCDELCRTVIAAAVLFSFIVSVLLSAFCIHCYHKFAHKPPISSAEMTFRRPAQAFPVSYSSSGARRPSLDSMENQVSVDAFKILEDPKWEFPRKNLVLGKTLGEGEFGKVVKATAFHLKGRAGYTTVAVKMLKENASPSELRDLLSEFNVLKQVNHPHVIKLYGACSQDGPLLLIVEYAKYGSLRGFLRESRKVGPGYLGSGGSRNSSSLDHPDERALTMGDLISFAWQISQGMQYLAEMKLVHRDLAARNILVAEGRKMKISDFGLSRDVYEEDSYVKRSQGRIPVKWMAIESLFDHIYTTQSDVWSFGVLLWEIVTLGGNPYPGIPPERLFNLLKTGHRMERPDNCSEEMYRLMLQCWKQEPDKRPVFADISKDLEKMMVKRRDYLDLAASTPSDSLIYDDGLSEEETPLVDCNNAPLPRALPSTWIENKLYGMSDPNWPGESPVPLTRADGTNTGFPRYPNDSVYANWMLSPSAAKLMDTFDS

Row | Structure (SMILES) | inhibition at 5 µM (MNK2) | inhibition at 5 µM (KDR) | inhibition at 5 µM (LYNa) | inhibition at 5 µM (p38b) | inhibition at 5 µM (RET) | inhibition at 5 µM (LYNb) | inhibition at 5 µM (ZAK) | inhibition at 5 µM (FGR) | inhibition at 5 µM (COT1) | inhibition at 5 µM (PIKfyve) | inhibition at 5 µM (SGK3) | inhibition at 5 µM (CRAF) | inhibition at 5 µM (ARAF) | inhibition at 5 µM (Abl2) | inhibition at 5 µM (BLK) | inhibition at 5 µM (FYN) | kinase inhibition, EPH (EPH) | inhibition at 5 µM (SGK2)
1 | Cc1ccc(NC(=O)c2cc(S(C)(=O)=O)n(-c3ccc(F)cc3)n2)cc1Nc1ccc2ncn(C)c(=O)c2c1 [Ex4, 1-(4-fluorophenyl)-N-(4-methyl-3-((3-methyl-4-oxo-3,4-dihydroquinazolin-6-yl)amino)phenyl)-5-(methylsulfonyl)-1H-pyrazole-3-carboxamide] | < 79% | < 79% | < 79% | < 79% | 90 to 94% | < 79% | < 79% | < 79% | < 79% | < 79% | < 79% | ≥ 95% | ≥ 95% | < 79% | < 79% | < 79% | D (D=79% and less) | < 79%
2 | Cc1ccc(NC(=O)c2cc([S+](C)[O-])n(-c3ccc(F)cc3)n2)cc1Nc1ccc2ncn(C)c(=O)c2c1 (stereo not drawn) [Ex5, 1-(4-fluorophenyl)-N-(4-methyl-3-((3-methyl-4-oxo-3,4-dihydroquinazolin-6-yl)amino)phenyl)-5-(methylsulfinyl)-1H-pyrazole-3-carboxamide] | < 79% | < 79% | ≥ 95% | 80 to 89% | < 79% | 90 to 94% | < 79% | < 79% | < 79% | < 79% | < 79% | ≥ 95% | ≥ 95% | < 79% | < 79% | < 79% | D (D=79% and less) | < 79%
3 | CCOC(=O)Nc1cn2nc(Nc3cc(NC(=O)c4cc(S(C)(=O)=O)n(-c5ccc(F)cc5)n4)ccc3C)ccc2n1 [Ex15, ethyl (6-((5-(1-(4-fluorophenyl)-5-(methylsulfonyl)-1H-pyrazole-3-carboxamido)-2-methylphenyl)amino)imidazo[1,2-b]pyridazin-2-yl)carbamate] | < 79% | 80 to 89% | ≥ 95% | 80 to 89% | ≥ 95% | ≥ 95% | < 79% | 80 to 89% | < 79% | < 79% | < 79% | ≥ 95% | < 79% | ≥ 95% | < 79% | ≥ 95% | D (D=79% and less) | < 79%
4 | CSc1cc(C(=O)Nc2cc(Oc3ccnc(C(=O)NC4CNC4)c3)ccc2F)nn1-c1ccc(F)cc1 [Ex8, N-(azetidin-3-yl)-4-(4-fluoro-3-(1-(4-fluorophenyl)-5-(methylthio)-1H-pyrazole-3-carboxamido)phenoxy)picolinamide] | 80 to 89% | < 79% | < 79% | < 79% | < 79% | < 79% | < 79% | < 79% | 90 to 94% | < 79% | 80 to 89% | ≥ 95% | < 79% | < 79% | < 79% | < 79% | D (D=79% and less) | < 79%
5 | Cc1ccc(NC(=O)c2cc([S+](C)[O-])n(-c3ccc(F)cc3)n2)cc1C#Cc1cnc2cccnn12 (stereo not drawn) [Ex6, 1-(4-fluorophenyl)-N-(3-(imidazo[1,2-b]pyridazin-3-ylethynyl)-4-methylphenyl)-5-(methylsulfinyl)-1H-pyrazole-3-carboxamide] | < 79% | < 79% | 90 to 94% | 80 to 89% | 90 to 94% | ≥ 95% | < 79% | 80 to 89% | < 79% | 90 to 94% | < 79% | ≥ 95% | < 79% | ≥ 95% | 80 to 89% | ≥ 95% | D (D=79% and less) | 90 to 94%
6 | CCOC(=O)Nc1cn2nc(Nc3cc(NC(=O)c4cc([S+](C)[O-])n(-c5ccc(F)cc5)n4)ccc3C)ccc2n1 (stereo not drawn) [Ex18, ethyl (6-((5-(1-(4-fluorophenyl)-5-(methylsulfinyl)-1H-pyrazole-3-carboxamido)-2-methylphenyl)amino)imidazo[1,2-b]pyridazin-2-yl)carbamate] | < 79% | < 79% | ≥ 95% | 80 to 89% | 80 to 89% | < 79% | < 79% | 80 to 89% | < 79% | < 79% | < 79% | ≥ 95% | < 79% | 80 to 89% | < 79% | ≥ 95% | D (D=79% and less) | < 79%
7 | Cc1ccc(NC(=O)c2cc([S+](C)[O-])n(-c3ccc(F)cc3)n2)cc1-c1cc(OCCO)nc(N2CCOCC2)c1 (stereo not drawn) [Ex10, 1-(4-fluorophenyl)-N-(3-(2-(2-hydroxyethoxy)-6-morpholinopyridin-4-yl)-4-methylphenyl)-5-(methylsulfinyl)-1H-pyrazole-3-carboxamide] | < 79% | < 79% | < 79% | < 79% | < 79% | < 79% | < 79% | < 79% | < 79% | < 79% | < 79% | ≥ 95% | ≥ 95% | < 79% | < 79% | < 79% | D (D=79% and less) | < 79%
